Test [1] concerns SpNanA, SpNanB, SpNanC, PmST1, BiNanH2, AuSialidase, CpNanI, VcSialidase, hNEU2. Kind of test: Sialidase inhibition assay at 1 mM, whole panel of sialidases tested. Type of test: biochemical. As to conditions: inhibitor 1 mM.
Test [2] addresses T1, SpNanB (Streptococcus pneumoniae serotype 4, UniProt Q54727). Kind of test: SpNanB-catalyzed hydrolysis assay. Type of test: biochemical. As to conditions: 10 mM compound, SpNanB 1 mg/mL, NaOAc pH 6.0 or Tris-HCl pH 7.0, 24 h.
Test [3] deals with IT-sialidase RgNanH. As to conditions: cited from earlier work.
The target in test [4] is T2, SpNanC (Streptococcus pneumoniae, UniProt A0A0H2UQE4). As to conditions: cited from earlier work.
Test [5] has as its target T1, SpNanB. To be noted: cited from earlier work.
The target in test [6] is T1, SpNanB. Kind of test: Sialidase inhibition assay, 384-well colorimetric, Neu5Acα2–3GalβpNP substrate. The class given is biochemical. As to conditions: for Inhibitory activity against SpNanB: inhibitor 1 mM.
Test [7] concerns the target VcSialidase (Vibrio cholerae serotype O1, UniProt P0C6E9). The test is described as above. The class given is biochemical.
The target of test [8] is T2, SpNanC. Described as above. The class given is biochemical.
Test [9] concerns the target AuSialidase (Paenarthrobacter ureafaciens, UniProt Q5W7Q2). The test is described as above. The class given is biochemical, Arthrobacter ureafaciens. As to conditions: inhibitor 1 mM.
Test [10] addresses T3, SpNanA (Streptococcus pneumoniae, UniProt P62575). Described as above. The class given is biochemical. To be noted: inhibitor 1 mM.
Test [11] has as its target T3, SpNanA. As to conditions: cited from earlier work.

Entries after “also recorded” stand apart in the source; their conditions may differ. Where two headings read alike, the source gives them in different places. Where only a bound is given, the exact number is not on record here.

T1 sequence (Q54727 30-697): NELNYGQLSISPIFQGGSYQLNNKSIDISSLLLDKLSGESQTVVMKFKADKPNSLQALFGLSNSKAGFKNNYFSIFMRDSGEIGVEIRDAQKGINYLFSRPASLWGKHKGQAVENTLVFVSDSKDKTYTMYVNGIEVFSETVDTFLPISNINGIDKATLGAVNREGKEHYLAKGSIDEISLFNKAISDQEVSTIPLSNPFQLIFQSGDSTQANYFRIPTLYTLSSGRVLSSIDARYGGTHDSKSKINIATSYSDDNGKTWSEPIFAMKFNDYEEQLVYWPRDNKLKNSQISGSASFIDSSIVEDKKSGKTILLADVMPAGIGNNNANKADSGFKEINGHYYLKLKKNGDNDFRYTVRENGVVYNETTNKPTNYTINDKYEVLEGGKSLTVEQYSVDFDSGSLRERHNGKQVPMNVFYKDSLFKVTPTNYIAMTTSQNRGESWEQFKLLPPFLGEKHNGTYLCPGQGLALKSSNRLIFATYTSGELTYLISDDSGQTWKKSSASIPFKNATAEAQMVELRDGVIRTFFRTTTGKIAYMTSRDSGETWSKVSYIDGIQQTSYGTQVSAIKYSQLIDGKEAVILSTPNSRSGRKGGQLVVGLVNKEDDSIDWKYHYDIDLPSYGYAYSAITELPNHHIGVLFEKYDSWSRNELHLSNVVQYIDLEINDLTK
T3 sequence (P62575 54-1035): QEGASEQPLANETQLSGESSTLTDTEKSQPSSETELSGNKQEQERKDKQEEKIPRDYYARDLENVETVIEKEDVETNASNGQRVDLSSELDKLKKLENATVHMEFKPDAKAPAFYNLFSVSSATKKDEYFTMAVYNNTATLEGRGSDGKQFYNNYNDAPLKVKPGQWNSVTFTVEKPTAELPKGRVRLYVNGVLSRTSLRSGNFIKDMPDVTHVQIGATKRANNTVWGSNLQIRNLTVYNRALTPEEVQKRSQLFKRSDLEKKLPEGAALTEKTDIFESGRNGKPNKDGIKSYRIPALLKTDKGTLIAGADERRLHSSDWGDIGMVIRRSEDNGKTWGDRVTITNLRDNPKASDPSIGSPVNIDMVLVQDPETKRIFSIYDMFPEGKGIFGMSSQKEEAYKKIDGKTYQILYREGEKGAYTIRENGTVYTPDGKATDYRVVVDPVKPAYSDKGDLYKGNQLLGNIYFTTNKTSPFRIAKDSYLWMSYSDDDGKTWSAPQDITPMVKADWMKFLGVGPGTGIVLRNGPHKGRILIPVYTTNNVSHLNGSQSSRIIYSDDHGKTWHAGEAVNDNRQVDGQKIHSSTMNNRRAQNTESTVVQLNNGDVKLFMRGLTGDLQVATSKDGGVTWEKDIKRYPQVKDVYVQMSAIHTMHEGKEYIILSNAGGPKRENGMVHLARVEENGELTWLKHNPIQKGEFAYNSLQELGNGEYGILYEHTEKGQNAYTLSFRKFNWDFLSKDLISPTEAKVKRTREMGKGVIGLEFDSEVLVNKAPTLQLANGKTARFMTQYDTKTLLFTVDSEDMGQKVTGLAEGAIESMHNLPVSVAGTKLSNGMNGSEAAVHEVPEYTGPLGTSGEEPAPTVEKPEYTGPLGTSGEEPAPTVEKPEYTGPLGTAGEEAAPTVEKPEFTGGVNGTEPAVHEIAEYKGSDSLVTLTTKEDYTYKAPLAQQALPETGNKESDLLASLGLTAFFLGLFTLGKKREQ
Chain of VcSialidase (P0C6E9 25-781): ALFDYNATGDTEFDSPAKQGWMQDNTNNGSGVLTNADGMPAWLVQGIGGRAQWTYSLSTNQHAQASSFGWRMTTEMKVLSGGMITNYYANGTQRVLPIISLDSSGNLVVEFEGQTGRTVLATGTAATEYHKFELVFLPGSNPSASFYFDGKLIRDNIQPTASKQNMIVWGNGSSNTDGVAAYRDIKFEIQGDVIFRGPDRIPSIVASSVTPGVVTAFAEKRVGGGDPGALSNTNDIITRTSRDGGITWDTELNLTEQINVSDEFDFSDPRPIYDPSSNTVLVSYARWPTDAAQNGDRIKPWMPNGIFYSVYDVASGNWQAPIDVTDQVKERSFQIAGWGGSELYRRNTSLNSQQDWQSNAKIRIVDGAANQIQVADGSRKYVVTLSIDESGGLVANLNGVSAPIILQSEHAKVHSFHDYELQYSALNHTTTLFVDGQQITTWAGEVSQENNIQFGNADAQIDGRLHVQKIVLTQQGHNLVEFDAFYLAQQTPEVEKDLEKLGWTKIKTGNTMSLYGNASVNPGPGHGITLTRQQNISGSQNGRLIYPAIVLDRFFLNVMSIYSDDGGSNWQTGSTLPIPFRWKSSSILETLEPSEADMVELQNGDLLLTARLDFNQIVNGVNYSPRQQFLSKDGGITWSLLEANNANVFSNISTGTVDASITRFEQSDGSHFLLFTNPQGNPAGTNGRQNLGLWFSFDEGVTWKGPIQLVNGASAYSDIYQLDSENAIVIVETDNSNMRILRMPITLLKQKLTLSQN

`CC(=O)N[C@H]1[C@H]2O[C@@](C(=O)O)(C[C@@H]1O)O[C@@H]2[C@H](O)CO` [compound 1, 5-Acetamido-2,7-anhydro-3,5-dideoxy-α-D-glycero-D-galacto-non-2-ulopyranosonic acid]: the “Inhibition against any sialidases tested” value in [1] is on record as “no significant inhibition”. In addition, in test [2], the “Hydrolysis by SpNanB” value was “can be hydrolyzed by SpNanB; also recorded: most 2,7-anhydro-Neu5Ac (1) was converted to Neu5Ac”.
Regarding `CCOC(=O)C1=C[C@@H](OC(CC)CC)[C@H](NC(C)=O)[C@@H](N)C1` [Oseltamivir], the “Inhibition of RgNanH” value in [3] was “inhibited”. The “Inhibitory activity against SpNanC” value in test [4] (concentration up to 7.5 mM) was “did not show inhibitory activity”. Besides, the “Inhibitory activity against SpNanB” value in test [5] (concentration up to 7.5 mM) is “did not show inhibitory activity”.
`N[C@H]1[C@H]2O[C@@](C(=O)O)(C[C@@H]1O)O[C@@H]2[C@H](O)CO` [compound 3, 5-Amino-2,7-anhydro-3,5-dideoxy-α-D-glycero-D-galacto-non-2-ulopyranosonic acid]: the “Inhibition against any sialidases tested” value in test [1] was “no significant inhibition”.
As for `COc1cc2oc(-c3ccc(O)cc3O)c(CC=C(C)C)c(=O)c2c(O)c1/C=C/C(C)C` [artocarpin], the “Inhibition against SpNanB” value in test [5] is listed as “reported to be inhibitors”.
One may read the IC50 as the point on the concentration scale where inhibition reaches its midpoint. Read a high IC50 as weaker potency in that assay. On to `O=C(N[C@H]1[C@H]2O[C@@](C(=O)O)(C[C@@H]1O)O[C@@H]2[C@H](O)CO)C(F)(F)F` [compound 2, 2,7-Anhydro-3,5-dideoxy-5-trifluoroacetamido-α-D-glycero-D-galacto-non-2-ulopyranosonic acid], for which the results for the IC50 in test [6], in test [7] and in test [8] were 250 to 500 µM, 500 to 1000 µM and above 1000 µM, respectively. Moreover, the “Inhibitory activity against SpNanB” value in test [6] is “some inhibitory activity”. Also, the “Inhibitory activity against VcSialidase” value in test [7] (inhibitor 1 mM) was “some inhibitory activity”. For the same molecule, the “Inhibitory activity against AuSialidase” value in test [9] is “some inhibitory activity”. In [10], the “Inhibitory activity against SpNanA” value is given as “some inhibitory activity”.
In the case of `CC(=O)N[C@H]1[C@H]([C@H](O)[C@H](O)CO)OC(C(=O)O)=C[C@@H]1O` [Neu5Ac2en, 2,3-dehydro-2-deoxy-N-acetylneuraminic acid], the “IC50 against SpNanC” value in test [4] was “submillimolar range”. Further, the “Inhibition against SpNanB” value in test [5] (other reports) is on record as “millimolar inhibitor”.
Consider `O=C(N[C@H]1[C@H]2O[C@@](C(=O)O)(C[C@@H]1O)O[C@@H]2[C@H](O)CO)C1CCCCC1` [compound 4, 2,7-Anhydro-5-cyclohexylamido-3,5-dideoxy-α-D-glycero-D-galacto-non-2-ulopyranosonic acid], for which the “Hydrolysis by SpNanB” value in test [2] is “resistant to SpNanB hydrolysis; also recorded: remained intact”. In test [6], the “Inhibitory activity against SpNanB” value is recorded as “noticeable inhibitory activity”. The “Inhibitory activity against SpNanC” value in [8] (inhibitor 1 mM) is on record as “noticeable inhibitory activity”. Further, in test [10], the “Inhibitory activity against SpNanA” value is “noticeable inhibitory activity”.
`O=C(CCc1ccccc1)C[C@@H]1C[C@@H](c2ccccc2)c2c(cc(/C=C/c3ccccc3)oc2=O)O1` [katsumadain A]: in test [5], the “Inhibition against SpNanB” value was “reported to be inhibitors”.
As to `O=C(CCCCCCCCc1ccc(O)c(O)c1)c1c(O)cccc1O` [malabaricone C], the “IC50 against SpNanC” value in test [4] is recorded as “submicromolar range”. In addition, in test [5], the “IC50 against SpNanB” value is reported as “submicromolar range”. Also, the “IC50 against SpNanA” value in test [11] was “submicromolar range”.
As to `O=S(=O)(O)CCNC1CCCCC1` [CHES, 2-N-Cyclohexylaminoethanesulfonic acid], in test [5], the “Inhibition against SpNanB” value was “weak inhibition”.

(Values after article PMC6327951 (The Journal of organic chemistry, 2018).)
